Target: T1, human mGluR5d (Homo sapiens, UniProt P41594)
T1 construct: expressed in transfected cells; GHEK cells stably expressing human mGluR5d are named only for the IP3 assay
Test: FLIPR analysis of [Ca2+]i mobilization in cells expressing human mGluR5d
Assay type: cell-based
Method: For FLIPR analysis, cells expressing human mGluR5das described in WO97/05252 were seeded on collagen coated clear bottom 96-well plates with black sides and analysis of [Ca^2+]i mobilization was done 24 h after seeding.
FLIPR experiments were done using a laser setting of 0.800 W and a 0.4 second CCD camera shutter speed. Each FLIPR experiment was initiated with 160 μl of buffer present in each well of the cell plate. After each addition of the compound, the fluorescence signal was sampled 50 times at 1 second intervals followed by 3 samples at 5 second intervals. Responses were measured as the peak height of the response within the sample period. EC50 and IC50 determinations were made from data obtained from 8-point concentration response curves (CRC) performed in duplicate. Agonist CRC were generated by scaling all responses to the maximal response observed for the plate. […]
FLIPR experiments were done using a laser setting of 0.800 W and a 0.4 second CCD camera shutter speed with excitation and emission wavelengths of 488 nm and 562 nm, respectively. […] After each addition the fluorescence signal was sampled 50 times at 1 second intervals followed by 3 samples at 5 second intervals. Responses were measured as the peak height of the response within the sample period. […]

T1 sequence (P41594 21-942 isoform P41594-3 limits assumed): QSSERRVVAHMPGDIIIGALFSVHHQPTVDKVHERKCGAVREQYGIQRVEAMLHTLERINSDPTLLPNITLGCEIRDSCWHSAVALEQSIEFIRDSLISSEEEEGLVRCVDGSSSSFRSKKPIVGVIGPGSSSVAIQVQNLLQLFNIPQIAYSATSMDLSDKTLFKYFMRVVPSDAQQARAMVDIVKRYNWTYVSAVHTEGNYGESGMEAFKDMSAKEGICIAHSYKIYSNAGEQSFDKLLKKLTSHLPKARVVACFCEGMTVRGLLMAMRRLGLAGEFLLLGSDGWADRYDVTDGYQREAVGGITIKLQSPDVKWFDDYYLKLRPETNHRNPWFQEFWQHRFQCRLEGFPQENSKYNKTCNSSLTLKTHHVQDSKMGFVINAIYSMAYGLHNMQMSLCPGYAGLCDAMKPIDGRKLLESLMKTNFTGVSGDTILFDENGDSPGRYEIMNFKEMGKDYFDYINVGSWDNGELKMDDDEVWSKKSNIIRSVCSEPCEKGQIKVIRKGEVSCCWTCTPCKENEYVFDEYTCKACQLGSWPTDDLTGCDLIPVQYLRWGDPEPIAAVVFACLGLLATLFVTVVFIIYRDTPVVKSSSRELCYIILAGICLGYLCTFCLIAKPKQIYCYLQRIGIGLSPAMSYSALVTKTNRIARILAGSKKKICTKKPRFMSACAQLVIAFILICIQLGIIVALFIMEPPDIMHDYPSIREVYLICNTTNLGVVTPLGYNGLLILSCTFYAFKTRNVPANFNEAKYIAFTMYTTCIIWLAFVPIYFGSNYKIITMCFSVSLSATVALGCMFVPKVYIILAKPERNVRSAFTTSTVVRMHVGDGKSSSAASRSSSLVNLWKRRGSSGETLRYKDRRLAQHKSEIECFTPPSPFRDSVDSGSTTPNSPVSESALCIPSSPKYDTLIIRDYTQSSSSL

SMILES	IC50 [nM]
CC(Sc1nnc(-c2ccncc2)n1C)c1nnn(-c2cc(Cl)ccc2F)n1 (centres unmarked) [4-(5-{1-[2-(5-Chloro-2-fluoro-phenyl)-2H-tetrazol-5-yl]-ethylsulfanyl}-4-methyl-4H-[1,2,4]triazol-3-yl)-pyridine]	55
CCOC(=O)N1CCN(C(C)c2nnn(-c3cccc(Cl)c3)n2)CC1 (centres unmarked) [Ethyl 4-{1-[2-(3-chlorophenyl)-2H-tetrazol-5-yl]ethyl}piperazine-1-carboxylate]	132
